Data on 16 molecules can be found in patent publication US9371331B2, “Modulators of methyl modifying enzymes, compositions and uses thereof” (Constellation Pharmaceuticals, Inc., priority 2012, dated 2016).

The structures appear in SMILES notation. Where two headings read alike, the source gives them in different places.

The target of one experiment is EZH2 (rPRC2) (Homo sapiens, UniProt Q15910). Briefly: EZH2 assay: rPRC2, biotinylated oligonucleosomes, 3H SAM methyl transfer (FlashPlate scintillation). It is filed as biochemical. As to conditions: biotinylated oligonucleosome substrate.
Sequence of EZH2 (rPRC2) (Q15910 whole entry): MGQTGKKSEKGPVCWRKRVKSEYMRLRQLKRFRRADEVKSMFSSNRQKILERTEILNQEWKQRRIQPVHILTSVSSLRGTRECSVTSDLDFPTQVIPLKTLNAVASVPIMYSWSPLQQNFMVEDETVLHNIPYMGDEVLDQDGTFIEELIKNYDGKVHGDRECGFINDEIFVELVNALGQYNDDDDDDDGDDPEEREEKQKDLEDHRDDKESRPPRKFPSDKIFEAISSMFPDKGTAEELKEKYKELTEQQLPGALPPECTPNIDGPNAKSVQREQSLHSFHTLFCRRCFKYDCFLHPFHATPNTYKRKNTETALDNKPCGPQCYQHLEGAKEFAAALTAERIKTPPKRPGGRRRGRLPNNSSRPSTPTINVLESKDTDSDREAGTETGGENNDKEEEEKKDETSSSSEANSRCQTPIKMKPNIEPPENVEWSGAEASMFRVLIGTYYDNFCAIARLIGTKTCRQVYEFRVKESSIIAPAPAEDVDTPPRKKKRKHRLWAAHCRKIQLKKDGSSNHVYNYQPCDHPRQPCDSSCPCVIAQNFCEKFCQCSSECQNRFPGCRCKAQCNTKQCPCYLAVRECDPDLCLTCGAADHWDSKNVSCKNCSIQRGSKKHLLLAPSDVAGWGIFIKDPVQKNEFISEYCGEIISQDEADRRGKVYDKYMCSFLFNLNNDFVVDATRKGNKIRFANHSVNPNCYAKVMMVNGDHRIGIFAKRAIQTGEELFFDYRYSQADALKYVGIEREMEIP
Sequence of EZH2 (rPRC2) (O75530 whole entry partner): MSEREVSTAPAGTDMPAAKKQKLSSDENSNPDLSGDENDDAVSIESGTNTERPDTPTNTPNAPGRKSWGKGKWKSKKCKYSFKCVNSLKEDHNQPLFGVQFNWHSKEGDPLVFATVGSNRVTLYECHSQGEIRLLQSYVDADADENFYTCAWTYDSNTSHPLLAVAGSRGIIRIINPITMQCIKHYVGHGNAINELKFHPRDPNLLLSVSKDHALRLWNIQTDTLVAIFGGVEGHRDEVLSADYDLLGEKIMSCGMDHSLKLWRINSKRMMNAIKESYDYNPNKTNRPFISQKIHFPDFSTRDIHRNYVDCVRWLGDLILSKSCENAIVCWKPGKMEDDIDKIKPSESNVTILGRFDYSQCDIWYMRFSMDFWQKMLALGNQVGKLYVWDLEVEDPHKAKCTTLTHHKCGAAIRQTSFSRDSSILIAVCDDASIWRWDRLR
Sequence of EZH2 (rPRC2) (Q15022 whole entry partner): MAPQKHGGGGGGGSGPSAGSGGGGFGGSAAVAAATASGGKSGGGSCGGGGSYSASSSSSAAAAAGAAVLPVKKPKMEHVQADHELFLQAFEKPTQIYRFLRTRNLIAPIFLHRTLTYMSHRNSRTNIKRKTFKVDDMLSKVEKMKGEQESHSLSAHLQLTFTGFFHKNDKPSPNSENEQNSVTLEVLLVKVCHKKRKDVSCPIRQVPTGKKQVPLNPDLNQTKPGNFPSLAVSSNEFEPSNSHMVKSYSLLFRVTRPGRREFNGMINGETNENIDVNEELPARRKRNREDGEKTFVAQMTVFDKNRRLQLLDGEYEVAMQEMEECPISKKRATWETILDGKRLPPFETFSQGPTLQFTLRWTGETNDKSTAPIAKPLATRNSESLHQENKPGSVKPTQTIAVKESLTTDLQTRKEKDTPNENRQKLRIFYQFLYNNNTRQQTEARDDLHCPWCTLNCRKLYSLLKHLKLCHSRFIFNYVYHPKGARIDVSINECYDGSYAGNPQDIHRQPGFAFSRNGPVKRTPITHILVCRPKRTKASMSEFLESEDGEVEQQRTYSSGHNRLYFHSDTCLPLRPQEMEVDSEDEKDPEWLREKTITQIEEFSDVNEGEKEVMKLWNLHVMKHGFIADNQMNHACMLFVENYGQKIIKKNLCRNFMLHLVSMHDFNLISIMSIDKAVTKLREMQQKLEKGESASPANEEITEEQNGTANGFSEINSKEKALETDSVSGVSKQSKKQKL
Another experiment has as its target Y641N EZH2 (Homo sapiens, UniProt Q15910, Y641N). Briefly: Y641N EZH2 assay: as EZH2 assay, with reconstituted H3K27Me2 oligonucleosomes as substrate. It is filed as biochemical.
Experiment [1] has as its system H3K27me3 mark in HeLa cells. The experiment can be described thus: H3K27me3 MSD Hela Assay. It is filed as cell-based. The following applies: Homo sapiens, HeLa, 96 h, read-out: H3K27me3_MSD_HeLa_ (EC50). In a few lines:
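HeLa cells treated with compound at various concentrations for 96 h at 37 °C, then lysed with high-salt extraction. H3K27me3 measured by MSD electrochemiluminescence immunoassay on total-H3 capture plates. Dose-dependent inhibition normalised to DMSO wells and fitted to curves.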

In experiment [2] the test system is H3K27me3 mark in HeLa cells. Briefly: H3K27me3 Alpha Hela Assay (AlphaLISA). In kind it is cell-based. As to conditions: 72 hrs; for EC50: Homo sapiens, read-out: H3K27me3_Alpha_HeLa_ (EC50). As for the experimental part:
H3K27me3 Alpha Hela Assay (AlphaLISA).
Ten different doses of each test compound (in a series of 3-fold dilutions) were plated in duplicate 384-well tissue culture treated plates (Catalog #781080; Greiner Bio One; Monroe, N.C.). Hela cells grown in culture were trypsinized and counted using a Countess® cell counter (Catalog #C10281; Life Technologies, Grand Island, N.Y.). Cell were diluted to 67,000 cells per mL in 10% DMEM (Catalog #10569-010 Life Technologies. Grand Island, N.Y.) and 15 μL (1,000 cells) were plated into each well using the Biotek MicroFlo™ Select Dispenser (BioTek Instruments. Inc. Vermont, USA),) of the 384-well plate. Plates were incubated at 37° C./5% CO2 for 72 hrs. One of the duplicate plates was processed for HeLa assay and the other for viability.
To the plate processed for AlphaLISA was added 5 μL per well Cell-Histone Lysis buffer (1×) (Catalog #AL009F1 Perkin Elmer; Waltham, Mass.) and the plate was incubated at RT for 30 minutes on a plate shaker with low speed (Model#4625-Q Thermo Scientific; Waltham, Mass.). Then, 10 µL per well Histone Extraction buffer (catalog #AL009F2: Perkin Elmer; Waltham, Mass.) was added and the plate further incubated at RT for 20 min on plate shaker with low speed. To each well was then added 10 μL per well of a 5× mix of anti-K27me3 acceptor beads plus Biotinylated anti-Histone H3 (C-ter) Antibody (diluted to 3 nM final) (Catalog #AL118 Perkin Elmer; Waltham, Mass.). Dilution of the acceptor beads and then anti-Histone H3 was with 1× Histone Detection buffer (Catalog #AL009F3 Perkin Elmer; Waltham, Mass.) which was produced diluted from the 10× stock provided. The plate was sealed with an aluminum plate sealer and incubated at 23° C. for 60 min. We then added 10 μL 5× solution of Streptavidin Donor beads (Catalog #6760002 Perkin Elmer; Waltham, Mass.) (20 μg/mL final in 1× Histone Detection Buffer), sealed the plate with Aluminum plate sealer and incubated at 23° C. for 30 min. The plates were then read using an EnVision-Alpha Reader (model #2104 Perkin Elmer: Waltham, Mass.).
Data from both assays was analyzed using Assay Assistant (Constellation Pharmaceuticals In-house product) and Activity Base (IDBS Ltd. Surrey, UK) template. Data files were imported to Assay Assistant and assay conditions were specified. A unique Analysis ID was created and the data files exported to Activity Base. An analysis template was created on Activity Base to measure dose-dependent inhibition of H3K27me3 mark and cell viability respectively. Readout of DMSO wells were used to normalize the data. Resulting curves were fitted using Activity base software Model 205 (IDBS Ltd, Surrey, UK). The data was checked for quality, validated and integrated in excel format using SARview (IDBS Ltd, Surrey, UK).
(In general: Bead proximity is the source of the signal in Alpha formats.)

The mark [3] stands for this setting: EZH2 IC50, wild-type EZH2 (rPRC2).
The mark [4] stands for this setting: Y641N EZH2 IC50, Y641N mutant EZH2, H3K27Me2 oligonucleosome substrate.
[5] abbreviates: wild-type EZH2 (rPRC2), read-out: EZH2 IC50.
[6] abbreviates: Y641N mutant EZH2, H3K27Me2 oligonucleosome substrate, read-out: Y641N EZH2 IC50.

Sequence of Y641N EZH2 (Q15910 whole entry Y641N): as the sequence (Q15910 whole entry) above, with Y641N counted along it
Sequence of Y641N EZH2 (O75530 whole entry partner): as the sequence (O75530 whole entry partner) above
Sequence of Y641N EZH2 (Q15022 whole entry partner): as the sequence (Q15022 whole entry partner) above

As to `COc1cc(C)[nH]c(=O)c1CNC(=O)c1c(C)n(C(C)C(C)OC)c2ccccc12` (racemic) [Compound 294, (±)-N-((4-methoxy-6-methyl-2-oxo-1,2-dihydropyridin-3-yl)methyl)-1-(3-methoxybutan-2-yl)-2-methyl-1H-indole-3-carboxamide], the IC50 on EZH2 (rPRC2) (setting [3]) and at Y641N EZH2 (setting [4]) was below 100 nM throughout. Also, the EC50 in experiment [1] and in experiment [2] was below 400 nM each time.

Consider `COc1cc(C)[nH]c(=O)c1CNC(=O)c1c(C)n(C(C)c2ccccc2)c2ccccc12` (single isomer, unassigned) [Compound 114, (R or S)N-((4-methoxy-6-methyl-2-oxo-1,2-dihydropyridin-3-yl)methyl)-2-methyl-1-(1-phenylethyl)-1H-indole-3-carboxamide], for which the concentration for half-maximal inhibition (IC50) against EZH2 (rPRC2) (setting [3]) and at Y641N EZH2 (setting [4]) was below 100 nM throughout. The EC50 is below 400 nM in experiment [1] and 400 to 2000 nM in experiment [2].

On to `COc1cc(C)[nH]c(=O)c1CNC(=O)c1c(C)n(C(C)C2CCOCC2)c2ccccc12` (single isomer, unassigned) [Compound 298, (R or S)-N-((4-methoxy-6-methyl-2-oxo-1,2-dihydropyridin-3-yl)methyl)-2-methy1-1-(1-(tetrahydro-2H-pyran-4-yl)ethyl)-1H-indole-3-carboxamide], for which the concentration for a half-maximal effect (EC50) in experiment [1] and in experiment [2] was below 400 nM each time.

For `COc1cc(C)[nH]c(=O)c1CNC(=O)c1c(C)n(C(C)C2CCN(c3ncccn3)CC2)c2ccccc12` (single isomer, unassigned) [Compound 361, (R or S)—N-((4-methoxy-6-methyl-2-oxo-1,2-dihydropyridin-3-yl)methyl)-2-methyl-1-(1-1-(pyrimidin-2-yl)piperidin-4-yl)ethyl)-1H-indole-3-carboxamide], the IC50 against EZH2 (rPRC2) (setting [3]) and against Y641N EZH2 (setting [4]) was below 100 nM throughout. In addition, in experiment [2], the concentration giving a half-maximal response (EC50) is below 400 nM.

Consider `COc1cc(C)[nH]c(=O)c1CNC(=O)c1c(C)n(C(C)C2CCN(CC(F)F)CC2)c2ccccc12` (single isomer, unassigned) [Compound 362, (R or S)-1-(1-(1-(2,2-difluoroethyl)piperidin-4-yl)ethyl)-N-((4-methoxy-6-methyl-2-oxo-1,2-dihydropyridin-3-yl)methyl)-2-methyl-1H-indole-3-carboxamide], for which the 50% inhibitory concentration (IC50) against EZH2 (rPRC2) (setting [3]) and against Y641N EZH2 (setting [4]) was below 100 nM in each case. Also, in experiment [2], the half-maximal effective concentration (EC50) is below 400 nM.

In the case of `CCOC(=O)CN1CCC(C(C)n2c(C)c(C(=O)NCc3c(OC)cc(C)[nH]c3=O)c3ccccc32)CC1` (single isomer, unassigned) [Compound 363, (R or S)-ethyl 2-(4-(1-(3-(((4-methoxy-6-methyl-2-oxo-1,2-dihydropyridin-3-yl)methyl)carbamoyl)-2-methyl-1 H-indol-1-yl)ethyl)piperidin-1-yl)acetate], the half-maximal inhibitory concentration (IC50) against EZH2 (rPRC2) (setting [3]) and against Y641N EZH2 (setting [4]) was below 100 nM throughout. For the same molecule, in experiment [2], the EC50 was below 400 nM.

For `Cc1cc(C)c(CNC(=O)c2c(C)n(C(C)C3CCN(CC(C)(C)O)CC3)c3ccccc23)c(=O)[nH]1` (single isomer, unassigned) [Compound 369, (R or S)-N-((4,6-dimethyl-2-oxo-1,2-dihydropyridin-3-yl)methyl)-1-(1-(1-(2-hydroxy-2-methylpropyl)piperidin-4-yl)ethyl)-2-methyl-1H-indole-3-carboxamide], the half-inhibitory concentration (IC50) at EZH2 (rPRC2) (setting [3]) and on Y641N EZH2 (setting [4]) was below 100 nM throughout. Besides, the EC50 in experiment [2] was below 400 nM.

Take `COc1cc(C)[nH]c(=O)c1CNC(=O)c1c(C)n(C(C)C2CCN(c3ccccn3)CC2)c2ccccc12` (single isomer, unassigned) [Compound 373]: the concentration for half-maximal inhibition (IC50) against EZH2 (rPRC2) (setting [3]) and at Y641N EZH2 (setting [4]) was below 100 nM in each case. Also, in experiment [2], the EC50 was below 400 nM.

For `COc1cc(C)[nH]c(=O)c1CNC(=O)c1c(C)n(C(C)C2CCOCC2)c2cc(-c3ccccc3)ccc12` (single isomer, unassigned) [Compound 374, (R or S)—N-((4-methoxy-6-methyl-2-oxo-1,2-dihydropyridin-3-yl)methyl)-2-methyl-6-phenyl-1-(1-(tetrahydro-2H-pyran-4-yl)ethyl)-1H-indole-3-carboxamide], the IC50 on EZH2 (rPRC2) (setting [3]) and at Y641N EZH2 (setting [4]) was below 100 nM throughout. The EC50 in experiment [2] was below 400 nM.

`Cc1cc(C)c(CNC(=O)c2c(C)n(C(C)C3CCN(C4CN(C)C4)CC3)c3ccccc23)c(=O)[nH]1` (single isomer, unassigned) [Compound 377, (R or S)-N-((4,6-dimethyl-2-oxo-1,2-dihydropyridin-3-yl)methyl)-2-methyl-1(1-(1-(1-methylazetidin-3-yl)piperidin-4-yl)ethyl)-1 H-indole-3-carboxamide]: the half-maximal inhibitory concentration (IC50) against EZH2 (rPRC2) (setting [3]) and against Y641N EZH2 (setting [4]) was below 100 nM throughout. In addition, the concentration giving a half-maximal response (EC50) in experiment [2] was in the range of 400 to 2000 nM.

On to `COc1cc(C)[nH]c(=O)c1CNC(=O)c1c(C)n(-c2cccc3ncccc23)c2ccccc12` [Compound 330, N-((4-methoxy-6-methyl-2-oxo-1,2-dihydropyridin-3-yl)methyl)-2-methyl-1-(quinolin-5-yl)-1H-indole-3-carboxamide], for which the IC50 at EZH2 (rPRC2) (setting [5]) and on Y641N EZH2 (setting [6]) was below 100 nM throughout. In experiment [2], the concentration for a half-maximal effect (EC50) lay in the range of 400 to 2000 nM.

As for `COc1cc(C)[nH]c(=O)c1CNC(=O)c1c(C)n(C(C)C2CCN(C(=O)OC(C)(C)C)CC2)c2ncncc12` (stereo not shown) [Compound 332, tert-butyl 4-(1-(5-(((4-methoxy-6-methyl-2-oxo-1,2-dihydropyridin-3-yl)methyl)carbamoyl)-6-methyl-7H-pyrrolo[2,3-d]pyrimidin-7-yl)ethyl)piperidine-1-carboxylate], the IC50 on EZH2 (rPRC2) (setting [5]) and on Y641N EZH2 (setting [6]) was below 100 nM each time. Moreover, the 50% effective concentration (EC50) in experiment [2] was in the range of 400 to 2000 nM.

Regarding `COCC(C)(C)n1c(C)c(C(=O)NCc2c(OC)cc(C)[nH]c2=O)c2ccccc21` [Compound 338, 1-(1-methoxy-2-methylpropan-2-yl)-N-((4-methoxy-6-methyl-2-oxo-1,2-dihydropyridin-3-yl)methyl)-2-methyl-1H-indole-3-carboxamide], the IC50 against EZH2 (rPRC2) (setting [3]) was below 100 nM; on Y641N EZH2 (setting [4]) it was 100 to 1000 nM. For the same molecule, the 50% effective concentration (EC50) in experiment [2] was in the range of 400 to 2000 nM.

For the molecule `COc1cc(C)[nH]c(=O)c1CNC(=O)c1c(C)n(-c2cccc3c2CCCN3)c2ccccc12` [Compound 339, N-((4-methoxy-6-methyl-2-oxo-1,2-dihydropyridin-3-yl)methyl)-2-methyl-1-(1,2,3,4-tetrahydroquinolin-5-yl)-1H-indole-3-carboxamide], the IC50 at EZH2 (rPRC2) (setting [5]) and at Y641N EZH2 (setting [6]) was below 100 nM in each case. Moreover, in experiment [2], the EC50 is below 400 nM.

`COc1cc(C)[nH]c(=O)c1CNC(=O)c1c(C)n(C(C)C2CCN(S(C)(=O)=O)CC2)c2ncncc12` (stereo not shown) [Compound 370]: the IC50 on EZH2 (rPRC2) (setting [5]) and at Y641N EZH2 (setting [6]) was below 100 nM throughout. Moreover, in experiment [2], the “H3K27me3_Alpha_HeLa_ (EC50)” value is on record as “*(3.33 μM)”.

For `COc1cc(C)[nH]c(=O)c1CNC(=O)c1c(C)n(-c2cccc3c2CCCN3S(C)(=O)=O)c2ccccc12` [Compound 371, N-((4-methoxy-6-methyl-2-oxo-1,2-dihydropyridin-3-yl)methyl)-2-methyl-1-(1-(methylsulfonyl)-1,2,3,4-tetrahydroquinolin-5-yl)-1H-indole-3-carboxamide], the IC50 at EZH2 (rPRC2) (setting [5]) and on Y641N EZH2 (setting [6]) was below 100 nM throughout. In experiment [2], the “H3K27me3_Alpha_HeLa_ (EC50)” value is “*(3.33 μM)”.

One may read the IC50 as the concentration that gives 50% inhibition. In general, EC50 refers to the concentration needed to bring the measured effect to its halfway point.
